Measured values: publication PMC4368200, “Triclabendazole Sulfoxide Causes Stage-Dependent Embryolethality in Zebrafish and Mouse In Vitro” (PLoS ONE, 2015)
Values joined by “and” are separate entries in the source; they are usually repeats but may differ in a detail not shown here. Identical values can stand only once. Marks after values point to notes of the source that are not given here.

How the values were obtained:
[1] = system: rat embryos explanted at GD 9.5; assay: Postimplantation whole embryo culture (postWEC); parameters: species or system Sprague Dawley rats; key to Yolk sac circulation (median): 1 = few/abnormal vessels, 2 = delayed, 3 = complete vascularization; key to Morphological score: sum of structure scores; higher = more advanced differentiation; conditions: for Crown-rump length / Dysmorphogenic embryos / Morphological score / Somites number / Yolk sac circulation (median): 48 h
Protocol: Nulliparous female rats, which were checked to be in the oestrus phase of the oestrous cycle, were housed with adult males (1:1) for 4 h, considering 2 h of light and 2 h of darkness. Mating was confirmed by the presence of sperm in vaginal smear, and the following 24 h were considered as gestational day 0 (GD 0).
Rat embryos were explanted and evaluated as described before with some variations. Briefly, embryos were explanted at GD 9.5 under sterile conditions. Two embryos were incorporated in flasks filled with 3.5 mL of culture medium which contained 20% of rat serum and 80% of serum mixture (Biochrom AG; Berlin, Germany). TCBZ, TCBZSO, ABZ and ABZSO were dissolved in dimethyl sulfoxide (DMSO; Sigma Aldrich Spain) and added to the culture medium to a final DMSO concentration of 0.1%. Culture flasks were oxygenated at the beginning of the culture with a gas mixture containing 12% O2 and after 38 h with a gas mixture containing 50% O2. Embryos were cultured at a temperature of 38°C, under rotation at a speed of 25 rpm (Noria R, Ovan Spain) for 48 h. After this period, embryos presenting yolk sac circulation and heartbeat were considered alive and were selected for further evaluation. The yolk sac circulation was evaluated according to the level of formation of blood vessels, giving a score of 1 in the cases in which few vessels were observed or the vascularization was abnormal, a score of 2 when a delay in vascularization was observed and 3 for complete vascularization, as previously described in [35]. Growth evaluation was assessed by crown-rump length and differentiation was evaluated by counting the number of somites and the morphological score. This score is the sum of the scores given to several embryonic structures depending on their differentiation stage, corresponding higher values with higher stages of differentiation. Furthermore, the percentage of dysmorphogenesis was calculated according to [36].
For the postWEC experiments, the selected concentrations were 140 μM, 278 μM and 556 μM for TCBZ and 267 μM, 666 μM and 932 μM for TCBZSO. The tested concentrations for ABZ analysis were 0.4 μM, 1.1 μM and 1.9 μM and for ABZSO were 3.4 μM, 9 μM, 12 μM, 14 μM and 16 μM.

[2] = reviewed and transformed to μM by 13; cited from earlier work
zebrafish embryos [3] = conditions: ref 19, 20; cited from earlier work
zebrafish embryos [4] = assay: Zebrafish embryo test (ZFET); type: in vivo, Danio rerio; conditions: for Dysmorphogenic embryos / Morphological score: 50 hpf
Protocol: The day before the test, adult male and female zebrafish were transferred (1:1) to breeding tanks (Aquaneering, San Diego, California). Artificial plants and marbles were used as spawning substrate. Spawning and fertilization took place within 30 min after the onset of light in the morning. Eggs were collected and extensively cleaned with ISO-standard 7346 water diluted 1:5 using deionized water. Fertilized eggs were selected under a dissection stereomicroscope (Motic SMZ168, Motic China group, LTD., China). The eggs presenting overt anomalies like asymmetries, formation of vesicles or damaged membranes were discarded.
Exposure and evaluation of eggs was performed as described before with slight variations. At 2 hours post-fertilization (hpf) fertilized eggs were selected and transferred to 6-well plates (Greiner Bio-one, Germany). Ten embryos were randomly distributed into wells and filled with 5 mL of freshly prepared test solutions. TCBZ, TCBZSO, ABZ and ABZSO were dissolved in DMSO and subsequently diluted in 0.3x Danieau’s buffer to a final DMSO concentration of 0.05% (v/v). Embryos were incubated at 26 ± 1°C with a dark-light cycle of 10–14 h for 48 h. Embryolethality was determined at 8 hpf on the basis of egg coagulation, at 26 hpf by the absence of tail detachment or somites formation, and at 50 hpf by the absence of heartbeat. Developmental and teratogenic effects were assessed at 50 hpf by the total morphological score described in [32].
The working concentrations for ZFET experiments were 0.1 μM, 0.5 μM, 1 μM, 2.5 μM and 5 μM for TCBZ studies and 0.5 μM, 1 μM, 2.5 μM, 5 μM, 10 μM and 50 μM for TCBZSO. The experiments with ABZ were performed including concentrations of 0.025 μM, 0.05 μM, 0.1 μM, 0.3 μM and 0.5 μM and for ABZSO they included 1 μM, 6 μM, 12 μM, 25 μM and 50 μM.

rat whole embryo culture = system: rat whole embryo culture; parameters: method as in PMID 22652462; conditions: ref 16; cited from earlier work

What does the source list for `CCCSc1ccc2nc(NC(=O)OC)[nH]c2c1` [ABZ, methyl-5-(propylthio)-2-benzimidazole-carbamate]?
Crown-rump length ([1]; 0.4 μM): 3.5 ± 0.1 mm; Dysmorphogenic embryos ([1]; 0.4 μM): 0%; Morphological score ([1]; 0.4 μM): 38.9 ± 0.6; Somites number ([1]; 0.4 μM): 25.8 ± 1.9; Yolk sac circulation (median) ([1]; 0.4 μM): 3.0; Frequency of dysmorphogenesis: Branchial bars ([1]; 1.1 µM): 50%; Frequency of dysmorphogenesis: Heart ([1]; 1.1 µM): 12.5%; Frequency of dysmorphogenesis: Subcutaneous blisters ([1]; 1.1 µM): 50%; Frequency of dysmorphogenesis: Yolk sac ([1]; 1.1 µM): 25%; Crown-rump length ([1]; 1.1 μM): 3.2 ± 0.2 mm; Dysmorphogenic embryos ([1]; 1.1 μM): 50 ^* %; Morphological score ([1]; 1.1 μM): 30.8 ± 2.1; Somites number ([1]; 1.1 μM): 23.9 ± 1.1; Yolk sac circulation (median) ([1]; 1.1 μM): 3.0; Frequency of dysmorphogenesis: Branchial bars ([1]; 1.9 µM): 100%; Frequency of dysmorphogenesis: Caudal part ([1]; 1.9 µM): 37.5%; Frequency of dysmorphogenesis: Flexion ([1]; 1.9 µM): 12.5%; Frequency of dysmorphogenesis: Head ([1]; 1.9 µM): 62.5%; Frequency of dysmorphogenesis: Heart ([1]; 1.9 µM): 37.5%; Frequency of dysmorphogenesis: Subcutaneous blisters ([1]; 1.9 µM): 37.5%; Frequency of dysmorphogenesis: Yolk sac ([1]; 1.9 µM): 75%; Crown-rump length ([1]; 1.9 μM): 2.9 ± 0.4 mm; Dysmorphogenic embryos ([1]; 1.9 μM): 100 ^* %; Morphological score ([1]; 1.9 μM): 26.4 ± 5.2; Somites number ([1]; 1.9 μM): 21.9 ± 4.5; Yolk sac circulation (median) ([1]; 1.9 μM): 1.0 ^*; postWEC LOAEC ([1]; GD 9.5-11.5, 48 h): 1.1 µM; Plasma concentrations at teratogenic doses [2]: 0.94 ([47]; reviewed and transformed to μM by [13]); ZFET LOAEC, in vitro literature (zebrafish embryos [3]): 0.3 [19, 20] μM; Lethality (zebrafish embryos [4]; 0.025 μM, 2-50 hpf): 7%; Dysmorphogenic embryos (zebrafish embryos [4]; 0.025 μM): 0%; Morphological score (zebrafish embryos [4]; 0.025 μM): 36.0 ± 0.0; Frequency of dysmorphogenesis: Cardiac oedema (zebrafish embryos [4]; 0.05 µM): 3.3%; Lethality (zebrafish embryos [4]; 0.05 μM, 2-50 hpf): 0%; Dysmorphogenic embryos (zebrafish embryos [4]; 0.05 μM): 3.3%; Morphological score (zebrafish embryos [4]; 0.05 μM): 35.9 ± 0.2; Frequency of dysmorphogenesis: Cardiac oedema (zebrafish embryos [4]; 0.1 µM): 2.5%; Lethality (zebrafish embryos [4]; 0.1 μM, 2-50 hpf): 0%; Dysmorphogenic embryos (zebrafish embryos [4]; 0.1 μM): 2.5%; Morphological score (zebrafish embryos [4]; 0.1 μM): 35.9 ± 0.2; Frequency of dysmorphogenesis: Cardiac oedema (zebrafish embryos [4]; 0.3 µM): 72%; Frequency of dysmorphogenesis: Developmental delay (zebrafish embryos [4]; 0.3 µM): 72%; Frequency of dysmorphogenesis: Eye pigmentation (zebrafish embryos [4]; 0.3 µM): 16%; Frequency of dysmorphogenesis: Head-body pigmentation (zebrafish embryos [4]; 0.3 µM): 40%; Frequency of dysmorphogenesis: Movement (zebrafish embryos [4]; 0.3 µM): 32%; Lethality (zebrafish embryos [4]; 0.3 μM, 2-50 hpf): 17 ^* %; Dysmorphogenic embryos (zebrafish embryos [4]; 0.3 μM): 72 ^* %; Morphological score (zebrafish embryos [4]; 0.3 μM): 25.5 ± 2.1; Lethality (zebrafish embryos [4]; 0.5 μM, 2-50 hpf): 100% and 100 ^* %; ZFET LOAEC dysmorphogenesis (zebrafish embryos [4]; 2-50 hpf): 0.3 µM; ZFET LOAEC lethality (zebrafish embryos [4]; 2-50 hpf): 0.3 µM; postWEC LOAEC, in vitro literature (rat whole embryo culture): 3.7 [16] μM
